Values quoted from earlier work as cited in patent US20130252334A1, “METHOD OF USING TET-INDUCIBLE TRANSGENES” (UNIVERSITY OF ROCHESTER, priority 2010, published 2013).

Key:
tet repressor = tet repressor (Escherichia coli, UniProt P04483); settings: relative to tetracycline; Zhu et al. 2007; cited from earlier work
rtTA = settings: compared to Dox; Zhu et al. 2007; cited from earlier work
[1] = versus other related compounds; cited from earlier work

tet repressor, sequence (P04483 whole entry): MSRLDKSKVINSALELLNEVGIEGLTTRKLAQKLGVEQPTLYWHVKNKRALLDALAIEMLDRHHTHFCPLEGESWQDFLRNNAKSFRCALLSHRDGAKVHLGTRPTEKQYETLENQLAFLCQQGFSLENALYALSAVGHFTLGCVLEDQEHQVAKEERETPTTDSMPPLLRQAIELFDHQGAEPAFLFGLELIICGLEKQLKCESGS

Question: With `C[C@H]1c2ccc(C(C)(C)C)c(O)c2C(O)=C2C(=O)[C@]3(O)C(O)=C(C(N)=O)C(=O)[C@@H](N(C)C)[C@@H]3[C@@H](O)[C@@H]21` [9-TB, 9-t-butyl doxycycline] as the molecule, how does the “binding affinity on the tet repressor, fold higher” value (tet repressor) read?
Answer: 10 fold

Question: And the “potency in activating transcription from the rtTA” value (rtTA)?
Answer: 10 times

Question: What about the hydrophobicity/lipophilicity [1] of the same molecule?
Answer: much more hydrophobic/lipophylic than other related compounds
